Assay results: US20230096766A1, “AMINO ACID HAVING FUNCTIONAL GROUP CAPABLE OF INTERMOLECULAR HYDROGEN BONDING, PEPTIDE COMPOUND CONTAINING SAME AND METHOD FOR PRODUCTION THEREOF” (Chugai Seiyaku Kabushiki Kaisha, priority 2018, published 2023)
*1 amine or outer side, *2 acyl side, *3 side chain or, on linkers, in order; H or OH if unused. Where a SMILES comes first, the peptide text is derived from it. Bridges are numbered along the chain shown (N, C = ends). [ ]: non-standard residue; d: D form. The star is where a group is joined. hPhe(3-OMe,4-CONHMe) = CNC(=O)c1ccc(CC[C@H](N)C(=O)O)cc1OC; NMePhe(3-Cl) = CN[C@@H](Cc1cccc(Cl)c1)C(=O)O; X12 = O=C([C@H](CCCC(O)C(F)(F)F)N[*:1])[*:2]; Tyr(3-F) = N[C@@H](Cc1ccc(O)c(F)c1)C(=O)O; NMehPhe = CN[C@@H](CCc1ccccc1)C(=O)O; X7 = O=C(C[C@H](COCCO)N[*:1])[*:2]; NMeF = CN[C@@H](Cc1ccccc1)C(=O)O; NMeGABA = CN(CCCC(=O)[*:2])[*:1]; NMeI = CC[C@H](C)[C@H](NC)C(=O)O; Butyl(3-Me,3-OH) = CC(C)(O)CC*; CH2CH(OH)CF3 = OC(C*)C(F)(F)F; CH2CONHtBu = CC(C)(C)NC(=O)C*; NMeL = CN[C@@H](CC(C)C)C(=O)O; Propyl(2R-OH) = C[C@@H](O)C*; NMeV = CN[C@H](C(=O)O)C(C)C; NMeA = CN[C@@H](C)C(=O)O; Piperidide = C1CCN(*)CC1; NBuGly = CCCCNCC(=O)O; NPrGly = CCCNCC(=O)O; Propyl(3-OH) = OCCC*; Sar = CNCC(=O)O; tBu = CC(C)(C)*

assay: in vitro; conditions: human, Caco-2, Caco-2 (cm/sec)

| SMILES | Papp |
| --- | --- |
| CNC(=O)c1ccc(CC[C@@H]2NC(=O)[C@H](CC(C)C)N(C)C(=O)CN(C)C(=O)[C@H]([C@@H](C)O)NC(=O)[C@H](CC(C)C)N(C)C(=O)[C@H](CC(C)C)NC(=O)[C@H](Cc3ccccc3)N(C)C(=O)[C@@H](C(C)C)NC(=O)C[C@@H](C(=O)N3CCCCC3)NC(=O)[C@H](CC(C)C)N(C)C(=O)[C@H](CC(C)C)N(C)C2=O)cc1OC [AP200] ([dV][NMeF]L[NMeL]T[Sar][NMeL][hPhe(3-OMe,4-CONHMe)][NMeL][NMeL]D-Piperidide; lactam N-11) | 0.88 ×10⁻⁶ cm/s |
| CC[C@H](C)[C@@H]1NC(=O)[C@H](CC(C)C)N(C)C(=O)CCCN(C)C(=O)C[C@@H](C(=O)N2CCCCC2)NC(=O)[C@H](CC(C)C)N(C)C(=O)[C@H](CC(C)C)N(C)C(=O)[C@H]([C@@H](C)O)NC(=O)[C@H](CC(C)C)N(C)C(=O)C[C@H](COCCO)NC(=O)[C@H](CC(C)C)N(C)C(=O)[C@H](Cc2cccc(Cl)c2)N(C)C1=O [AP22] ([NMeGABA][NMeL]I[NMePhe(3-Cl)][NMeL][X7][NMeL]T[NMeL][NMeL]D-Piperidide; lactam N-11) | 0.23 ×10⁻⁶ cm/s |
| CC(C)C[C@@H]1NC(=O)[C@H](Cc2ccccc2)N(C)C(=O)[C@H](CC(C)C)N(C)C(=O)[C@H](COCCC(C)(C)O)NC(=O)[C@H](C)N(C)C(=O)C[C@@H](C(=O)N2CCCCC2)NC(=O)[C@H](CC(C)C)N(C)C(=O)CN(C)C(=O)[C@H]([C@@H](C)O)NC(=O)[C@H](CC(C)C)N(C)C(=O)[C@H](CCc2ccccc2)N(C)C1=O [AP55] ([NMeA]S(Butyl(3-Me,3-OH))[NMeL][NMeF]L[NMehPhe][NMeL]T[Sar][NMeL]D-Piperidide; lactam N-11) | 1.3 ×10⁻⁶ cm/s |
| CCCCN1CC(=O)N(C)[C@@H](Cc2ccccc2)C(=O)N[C@@H](COCCCO)C(=O)N(C)[C@@H](CC(C)C)C(=O)N[C@@H]([C@@H](C)O)C(=O)N(CCCC)CC(=O)N(C)[C@@H](Cc2ccccc2)C(=O)N(C)[C@@H](C(C)C)C(=O)N[C@@H](COC(C)(C)C)C(=O)N(C)[C@@H](CC(C)C)C(=O)N[C@H](C(=O)N2CCCCC2)CC1=O [AP95] ([NBuGly][NMeF]S(Propyl(3-OH))[NMeL]T[NBuGly][NMeF][NMeV]S(tBu)[NMeL]D-Piperidide; lactam N-11) | 0.69 ×10⁻⁶ cm/s |
| CC(C)C[C@H]1C(=O)N[C@@H](C(C)C)C(=O)N(C)[C@@H](Cc2ccccc2)C(=O)N(C)[C@@H](Cc2ccccc2)C(=O)N[C@@H](COC(C)(C)C)C(=O)N(C)[C@@H](CC(C)C)C(=O)N[C@@H](COC[C@@H](C)O)C(=O)N(C)[C@@H](CC(C)C)C(=O)N(C)[C@@H](CC(C)C)C(=O)N[C@H](C(=O)N2CCCCC2)CC(=O)N(C)CCCC(=O)N1C [AP83] ([NMeGABA][NMeL]V[NMeF][NMeF]S(tBu)[NMeL]S(Propyl(2R-OH))[NMeL][NMeL]D-Piperidide; lactam N-11) | 1.3 ×10⁻⁶ cm/s |
| CC[C@H](C)[C@@H]1NC(=O)[C@H](CC(C)C)N(C)C(=O)[C@@H](C)NC(=O)C[C@@H](C(=O)N2CCCCC2)NC(=O)[C@H](C)N(C)C(=O)[C@H](Cc2ccccc2)N(C)C(=O)[C@H](COC(C)(C)C)NC(=O)[C@H](CC(C)C)N(C)C(=O)CN(C)C(=O)[C@H](Cc2ccc(O)c(F)c2)NC(=O)[C@H](CC(C)C)N(C)C1=O [pd124] ([dA][NMeL]I[NMeL][Tyr(3-F)][Sar][NMeL]S(tBu)[NMeF][NMeA]D-Piperidide; lactam N-11) | 0.32 ×10⁻⁶ cm/s |
| CCCCN1CC(=O)N(C)[C@@H](Cc2ccccc2)C(=O)N[C@@H]([C@@H](C)CC)C(=O)N(C)[C@@H](CC(C)C)C(=O)N[C@@H]([C@@H](C)O)C(=O)N(CCC)CC(=O)N(C)[C@@H](Cc2ccccc2)C(=O)N(C)[C@@H](CC(C)C)C(=O)N[C@@H](COCC(=O)NC(C)(C)C)C(=O)N(C)[C@@H](C)C(=O)N[C@H](C(=O)N2CCCCC2)CC1=O [AP18] ([NBuGly][NMeF]I[NMeL]T[NPrGly][NMeF][NMeL]S(CH2CONHtBu)[NMeA]D-Piperidide; lactam N-11) | 1 ×10⁻⁶ cm/s |
| CC(C)C[C@@H]1NC(=O)[C@H](Cc2ccccc2)N(C)C(=O)[C@@H](C(C)C)NC(=O)C[C@@H](C(=O)N2CCCCC2)NC(=O)[C@H](CC(C)C)N(C)C(=O)[C@H](Cc2cccc(Cl)c2)N(C)C(=O)[C@H](COC[C@@H](C)O)NC(=O)[C@H](CC(C)C)N(C)C(=O)CN(C)C(=O)[C@H]([C@@H](C)O)NC(=O)[C@H](CC(C)C)N(C)C1=O [AP72] ([dV][NMeF]L[NMeL]T[Sar][NMeL]S(Propyl(2R-OH))[NMePhe(3-Cl)][NMeL]D-Piperidide; lactam N-11) | 0.95 ×10⁻⁶ cm/s |

same assay, conditions: human, Caco-2, Caco-2 (membrane permeability)

| SMILES | Papp |
| --- | --- |
| CC[C@H](C)[C@H]1C(=O)N[C@@H]([C@@H](C)O)C(=O)N(C)CC(=O)N(C)[C@@H](CC(C)C)C(=O)N[C@H](C(=O)N2CCCCC2)CC(=O)N(C)[C@@H](C(C)C)C(=O)N[C@@H](CC(C)C)C(=O)N(C)[C@@H](CC(C)C)C(=O)N(C)[C@@H](Cc2ccccc2)C(=O)N[C@@H](CCCC(O)C(F)(F)F)C(=O)N(C)[C@@H](Cc2ccccc2)C(=O)N1C (stereo partly drawn) [Compound D05] ([NMeV]L[NMeL][NMeF][X12][NMeF][NMeI]T[Sar][NMeL]D-Piperidide; lactam N-11) | 0.36 ×10⁻⁶ cm/s |
| CC[C@H](C)[C@H]1C(=O)N[C@@H]([C@@H](C)O)C(=O)N(C)CC(=O)N(C)[C@@H](CC(C)C)C(=O)N[C@H](C(=O)N2CCCCC2)CC(=O)N(C)[C@@H](C(C)C)C(=O)N[C@@H](CC(C)C)C(=O)N(C)[C@@H](CC(C)C)C(=O)N(C)[C@@H](Cc2ccccc2)C(=O)N[C@@H](COCC(O)C(F)(F)F)C(=O)N(C)[C@@H](Cc2ccccc2)C(=O)N1C (stereo partly drawn) [Compound C05] ([NMeV]L[NMeL][NMeF]S(CH2CH(OH)CF3)[NMeF][NMeI]T[Sar][NMeL]D-Piperidide; lactam N-11) | 0.57 ×10⁻⁶ cm/s |
